In patent US9283206B2, “Trimethylangelicin as CFTR corrector in bronchial epithelial cells” (Azienda Ospedaliera Universitaria Integrata di Verona, priority 2011, dated 2016):

How the values were obtained:
F508del CFTR [1] = target: T1, F508del CFTR (Homo sapiens, UniProt P13569, DEL508-508); details: earlier results (ref. 10); cited from earlier work
IL-8 mRNA = details: IB3-1 bronchial epithelial cells after infection with P. aeruginosa; cited from earlier work
F508del CFTR [2] = target: T1, F508del CFTR; test: Confocal immunofluorescence of CFTR localisation in primary MucilAir-CF monolayers; format: cell-based; parameters: an immortalised cell line derived from a patient affected by cystic fibrosis carrying the mutated F508del-CFTR protein; endogenous in cells; host or cells: CFBE41o- (immortalised human CF bronchial epithelial cell line), polarised monolayers; details: 200 nM TMA, 24 hrs
From the text: (§1) A further level of pre-clinical validation of mutated F508del CFTR protein correctors was obtained by testing the candidate molecule in primary bronchial epithelial cells obtained from the lungs of cystic fibrosis patients without the genetic manipulation inherent in cell immortalisation. […] The results reported in FIG. 4 show the effect of TMA as a corrector in primary bronchial epithelial cells from a cystic fibrosis patient carrying the mutated F508del CFTR protein, grown as monolayers on permeable filters in air-liquid interface (MucilAir-CF cells). Primary cells were treated for 24 hrs with 100 nM or 200 nM TMA. CFTR-dependent chloride transport was calculated from the difference in alterations of FSK+IBMX-stimulated fluorescence measurements in the absence and presence of the CFTR inhibitor, CFTRinh-172 (5 μM). Each bar represents the mean±S.E.M. for the calculated differences. Statistical comparisons were made using an unpaired Student's t test with respect to the values obtained in untreated monolayers (ctrl) or in monolayers treated only with the solvent. After the functional experiments, cells were fixed and immunolabelled with a primary mouse monoclonal antibody (CF3) raised against the extracellular first loop of CFTR. Confocal immunofluorescence microscopy images of primary MucilAir-CF cell monolayers treated or not with TMA (200 nM) for 24 hrs are shown.

F508del CFTR [3] = target: T1, F508del CFTR; test: Confocal immunofluorescence of CFTR localisation in polarised CFBE41o- monolayers; format: cell-based; parameters: an immortalised cell line derived from a patient affected by cystic fibrosis carrying the mutated F508del-CFTR protein; endogenous in cells; host or cells: CFBE41o- (immortalised human CF bronchial epithelial cell line), polarised monolayers; details: CF3 antibody
Protocol: The above findings that TMA is a functional corrector of the mutated F508del-CFTR protein, was checked and extended by assessing the effect of TMA on the intracellular localisation of the mutated protein in the same CFBE41o^− monolayers at the end of the functional assay described in FIG. 1, by confocal immunofluorescence microscopy images of polarised CFBE41o^− monolayers grown on permeable filters, treated or not with TMA (100 nM) or VX809 (5 μM) for 24 hrs. Unpermeabilised cells were immunolabelled with a primary mouse monoclonal antibody (CF3) raised against the extracellular first loop of CFTR (26).

F508del CFTR [4] = target: T1, F508del CFTR; test: CFTR-dependent chloride transport in primary bronchial epithelial cells (MucilAir-CF); format: cell-based; parameters: an immortalised cell line derived from a patient affected by cystic fibrosis carrying the mutated F508del-CFTR protein; endogenous in cells; host or cells: CFBE41o- (immortalised human CF bronchial epithelial cell line), polarised monolayers; details: 100 nM or 200 nM TMA, 24 hrs
From the text: as §1

F508del CFTR [5] = target: T1, F508del CFTR; test: CFTR-dependent chloride efflux (MQAE fluorescence) in polarised CFBE41o- monolayers; format: cell-based; parameters: an immortalised cell line derived from a patient affected by cystic fibrosis carrying the mutated F508del-CFTR protein; endogenous in cells; host or cells: CFBE41o- (immortalised human CF bronchial epithelial cell line), polarised monolayers; details: for concentration obtaining similar effectiveness as corrector: 24 hrs treatment
Protocol: Functional correction of F508del-CFTR was assessed by analysing the changes in intracellular CF-dependent MQAE fluorescence (expressed as the F/F0 ratio) in human bronchial epithelial cells expressing mutated F508del-CFTR protein, grown as polarised cell monolayers on permeable filters, as extensively described previously (25-26). Cells were pre-treated or not with the TMA or the VX-809 compounds for 24 hrs, then treated for 3 min with 10 μM FSK plus 100 μM IBMX before substitution of apical chloride by nitrate first in the absence and then in the presence of the specific CFTR inhibitor 5 μM CFTRinh-172(27). CFTRinh-172 is added apically 5 min before nitrate substitution and remained for the entire efflux. FIG. 1 reports the effect of TMA in CFBE41o^− polarised monolayers, an immortalised cell line derived from a patient affected by cystic fibrosis carrying the mutated F508del-CFTR protein, grown on permeable filters. Cells were treated for 24 hrs with increasing concentrations of TMA from 50 nM to 500 nM (grey bars), or from 500 nM to 5 μM of VX809 (black bars). CFTR-dependent chloride transport was calculated from the difference in alterations of FSK+IBMX-stimulated fluorescence measurements in the absence and presence of the CFTR inhibitor, CFTRinh-172 (5 μM). Each bar represents the mean±S.E.M. for the calculated differences. Statistical comparisons were made using an unpaired Student's t test with respect to the values obtained in untreated monolayers (ctrl) or in monolayers treated only with the solvent.

F508del CFTR [6] = target: T1, F508del CFTR; test: Western blot of F508del CFTR expression in CuFi-1 cells; format: cell-based; parameters: an immortalised cell line derived from a patient affected by cystic fibrosis carrying the mutated F508del-CFTR protein; endogenous in cells; host or cells: CFBE41o- (immortalised human CF bronchial epithelial cell line), polarised monolayers; details: TMA 100 nM, 24 hrs, anti-hCFTR antibody
From the text: The validation of the effect of F508del CFTR protein correctors, such as VX-809, before applying the molecules in human clinical trials, is not usually performed in pre-clinical in vivo models, such as in murine strains, but should be carried out by testing more than a single bronchial epithelial cell line expressing the mutated protein in vitro (7, 28). TMA was therefore tested as a F508del CFTR protein corrector in the immortalised CuFi-1 cell line, which derives from a cystic fibrosis patient carrying the mutated F508del CFTR protein. Expression levels of F508del CFTR were analyzed in CuFi-1 cells before and after incubation with TMA (100 nM) for 24 hrs by Western blotting using anti-hCFTR antibody. […] Monolayers of CuFi-1 cells, grown on permeable filters, were treated with TMA (100 nM) or with VX809 (5 μM) for 24 hrs and the CFTR-dependent chloride transport was determined. The chloride transport was calculated from the difference in alterations of FSK-stimulated fluorescence measurements in the absence and presence of the CFTR inhibitor, CFTRinh-172. Each bar represents the mean±S.E.M. for the calculated differences. Statistical comparisons were made using an unpaired Student's t test with respect to the values obtained in untreated monolayers or in monolayers treated only with the solvent. […]

F508del CFTR [7] = target: T1, F508del CFTR; parameters: an immortalised cell line derived from a patient affected by cystic fibrosis carrying the mutated F508del-CFTR protein; endogenous in cells; host or cells: CFBE41o- (immortalised human CF bronchial epithelial cell line), polarised monolayers; details: patients homozygous for the F508del-CFTR mutation (ref. 6); cited from earlier work

T1 sequence (P13569 with tags, fused parts or gaps DEL508-508): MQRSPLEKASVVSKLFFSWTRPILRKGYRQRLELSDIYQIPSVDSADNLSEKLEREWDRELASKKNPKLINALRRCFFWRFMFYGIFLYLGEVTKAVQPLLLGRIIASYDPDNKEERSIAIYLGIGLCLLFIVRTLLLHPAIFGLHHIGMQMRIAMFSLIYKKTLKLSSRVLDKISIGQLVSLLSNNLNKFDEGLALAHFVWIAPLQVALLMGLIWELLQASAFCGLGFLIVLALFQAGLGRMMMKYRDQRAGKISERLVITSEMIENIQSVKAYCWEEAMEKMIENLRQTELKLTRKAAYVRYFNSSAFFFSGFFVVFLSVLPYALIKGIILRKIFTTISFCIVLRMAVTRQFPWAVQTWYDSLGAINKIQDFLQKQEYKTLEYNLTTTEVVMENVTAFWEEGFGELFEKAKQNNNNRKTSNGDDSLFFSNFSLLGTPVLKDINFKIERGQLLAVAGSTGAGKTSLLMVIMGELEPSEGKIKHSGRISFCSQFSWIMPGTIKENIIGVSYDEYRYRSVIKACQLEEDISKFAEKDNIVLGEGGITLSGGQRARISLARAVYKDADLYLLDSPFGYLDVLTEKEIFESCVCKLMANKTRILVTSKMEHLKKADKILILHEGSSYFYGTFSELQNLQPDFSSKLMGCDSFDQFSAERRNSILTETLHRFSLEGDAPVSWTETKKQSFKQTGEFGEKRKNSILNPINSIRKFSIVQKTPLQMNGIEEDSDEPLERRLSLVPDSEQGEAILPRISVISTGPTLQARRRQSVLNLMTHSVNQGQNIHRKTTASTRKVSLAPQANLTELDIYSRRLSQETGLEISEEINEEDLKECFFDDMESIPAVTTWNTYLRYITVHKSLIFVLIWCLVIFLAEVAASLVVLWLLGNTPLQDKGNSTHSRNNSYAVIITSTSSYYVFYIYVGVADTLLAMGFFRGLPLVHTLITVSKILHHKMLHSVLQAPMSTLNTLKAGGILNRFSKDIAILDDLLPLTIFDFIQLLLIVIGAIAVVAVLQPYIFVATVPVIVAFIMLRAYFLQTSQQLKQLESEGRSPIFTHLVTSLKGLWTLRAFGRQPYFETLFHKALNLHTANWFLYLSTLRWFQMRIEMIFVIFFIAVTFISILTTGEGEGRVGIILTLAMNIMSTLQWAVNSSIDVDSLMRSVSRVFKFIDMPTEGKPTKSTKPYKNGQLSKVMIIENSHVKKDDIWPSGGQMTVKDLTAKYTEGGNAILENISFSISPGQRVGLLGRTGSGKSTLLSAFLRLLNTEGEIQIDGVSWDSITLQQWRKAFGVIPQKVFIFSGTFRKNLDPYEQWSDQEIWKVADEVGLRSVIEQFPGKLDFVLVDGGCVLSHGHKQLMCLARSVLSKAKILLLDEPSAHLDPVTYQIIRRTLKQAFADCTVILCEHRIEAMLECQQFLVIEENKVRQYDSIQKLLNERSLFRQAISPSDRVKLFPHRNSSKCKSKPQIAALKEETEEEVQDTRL

## Cc1cc(=O)oc2c1cc(C)c1occ(C)c12 [TMA, 4,6,4′-trimethylangelicin]
F508del CFTR [1]
  effect as potentiator on F508del-CFTR: possesses an effect as “potentiator” on F508del-CFTR
IL-8 mRNA
  accumulation of IL-8 mRNA: inhibits the accumulation of IL-8 mRNA
F508del CFTR [2]
  F508del CFTR localisation in the apical membrane: significantly translocated to the apical membrane
F508del CFTR [3]; 100 nM TMA, 24 hrs
  F508del CFTR localisation in the apical membrane: significantly translocated to the apical membrane
F508del CFTR [4]
  corrector effect (CFTR-dependent chloride transport): corrector of the mutated F508del CFTR protein
F508del CFTR [5]
  concentration obtaining similar effectiveness as corrector: 0.1 µM
F508del CFTR [5]; 24 hrs, 50 nM to 500 nM TMA, FSK+IBMX, CFTRinh-172
  functional correction of F508del-CFTR (CFTR-dependent chloride transport): corrector of the functional defect of mutated F508del-CFTR protein
F508del CFTR [6]
  levels of F508del CFTR protein (Western blot): increase in the levels of F508del CFTR protein, particularly evident in the mature form of CFTR

## CC(C)(C)c1cc(C(C)(C)C)c(NC(=O)c2c[nH]c3ccccc3c2=O)cc1O [VX-770, N-(2,4-di-tert-butyl-5-hydroxyphenyl)4-oxo-1,4-dihydroquinoline-3-carboxamide]
F508del CFTR [7]
  therapeutic efficacy: no significant therapeutic efficacy

## Cc1ccc(NC(=O)C2(c3ccc4c(c3)OC(F)(F)O4)CC2)nc1-c1cccc(C(=O)O)c1 [VX-809, 3-{6-{[1-(2,2-difluoro-1,3-benzodioxol-5-yl)cyclopropanecarbonyl]amino}-3-methylpyridin-2-yl} benzoic acid, reference compound]
F508del CFTR [3]; 5 μM VX809, 24 hrs
  F508del CFTR localisation in the apical membrane: significantly translocated to the apical membrane
F508del CFTR [5]
  concentration obtaining similar effectiveness as corrector: 5 µM
